Measurements from patent US20020169101A1, “Treatment of sexual dysfunction” (priority 1999, published 2002).
pKi: −log10 of the molar value.

How the values were obtained:
[1] = target: T1, human NMB receptor (BB1) (Homo sapiens, UniProt P28336); test: BB1 binding assay ([125I][Tyr4]bombesin displacement, CHO-K1 membranes); settings: Table 1, human NMB receptor binding affinity; Ki from IC50 by Cheng-Prusoff; read-out: NMB Ki
T1 construct: expressed in transfected cells; membranes prepared from the cells
Procedure, shortened: (§1)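 Competition against <0.1 nM [125I][Tyr4]bombesin, 60 min for the NMB receptor and 90 min for the GRP receptor, using homogenised membranes of human-receptor-expressing CHO-K1 cells in pH 7.4 Tris buffer. Bound label was filtered and gamma-counted, with 1 μM bombesin as nonspecific. Ki values came from IC50 via Cheng-Prusoff.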

[2] = target: T2, human GRP receptor (BB2) (Homo sapiens, UniProt P30550); test: BB2 binding assay ([125I][Tyr4]bombesin displacement, CHO-K1 membranes); settings: Table 1, human GRP receptor binding affinity; Ki from IC50 by Cheng-Prusoff; read-out: GRP Kj
T2 construct: expressed in transfected cells; membranes prepared from the cells
Procedure, shortened: as §1

[3] = system: female rat sexual proceptivity; test: Female rat sexual proceptivity test (time investigating male vs female stimulus); format: in vivo
Procedure: (§2) Ovariectomised adult female Sprague Dawley rats (180-200 g, from Charles River) were housed in groups of 6 in a reversed lighting system of 12 h light:dark (lights off 7.00-19.00 h). Two weeks after ovariectomy they were used for sexual activity tests. The experiments started at least 5 h into the dark period.
Tests were carried out in a circular arena of 90 cm diameter, surrounded by a 30 cm high wall. Two small cages with wire-mesh front (15×15 cm) are fixed into the wall such that the front of the cage is <> with the wall and the 2 cages are opposite each other. They contained two stimuli animals: an intact sexually experienced male and a receptive female (ovariectomised, primed with 5 μg oestradiol benzoate dissolved in corn oil and injected subcutaneously 48 hours before the test and with 0.5 mg of progesterone four hours before the test). Sexually naive test and control animals were used. Forty eight hours before the tests, both the test and control animals were primed with 5 μg oestradiol benzoate. For animals used as positive controls, progesterone (0.5 mg/0.1 ml) was dissolved in corn oil and administered subcutaneously (s.c.), 4 h before the test. Test and control animals were introduced one at a time for 10 minute periods into the arena. During the 10 min test, the time that the test or positive control animal spent investigating each stimulus animal was noted. The arena was thoroughly cleaned between animals. The position of the male/female stimuli boxes was randomised between animals, in order to avoid place preference. The difference in the percentage of time spent investigating the male minus the female stimuli was calculated, out of the total time spent investigating stimuli animals.
Compound (1) was dissolved in 100% β-cyclodextrin and then diluted with saline to a final solution of 50% 2-hydroxypropyl-β-cyclodextrin. It was administered intraperitoneally (i.p.) at doses of 3 and 10 mg/kg, in a dosing volume of 1 ml/kg, 1 h before tests. Progesterone (0.5 mg/0.1 ml) was dissolved in corn oil and administered subcutaneously (s.c.), 4 h before test, as a positive control.
Ovariectomised adult female Sprague Dawley rats (180-200 g) were housed in groups of 5 in a reversed lighting system of 12 h light:dark (lights off 5.00-17.00 h). They were used for the experiments at least two weeks after ovariectomy. Forty eight hours before tests, the animals were primed with oestradiol benzoate (5 μg/[…] in corn oil, s.c.). On day 1, progesterone (0.5 mg/0.1 ml, in corn oil, s.c.) was administered to one of the groups 4 h before tests, as a positive control. Compound (1) (15 mg/kg, i.p.) was administered in 50% 2-hydroxypropyl-β-cyclodextrin, 1 h before tests. The test lasted 10 minutes and was carried out as described before. The difference in the percentage of time spent investigating the male minus the female stimuli was calculated, out of the total time spent investigating stimuli animals. Animals were submitted to a test on day 1 and on day 15. From day 2 to 14 the Compound (1) group received a daily injection of the compound (15 mg/kg, i.p.), while both the vehicle and the progesterone groups received an injection of vehicle. On day 15 the test took place again, as described for day 1.
Ovariectomised female rats (Sprague Dawley, obtained from Charles River, UK) were stereotaxically implanted (coordinates 0.89 mm behind Bregma, 1.3 mm lateral and 2.5 mm vertical) with stainless steel cannulae (6 mm long, O.D. 0.75 mm), held in place with dental cement. Animals were housed in groups of three and returned to a reversed lighting system of 12 h light:dark (lights off 5.00-17.00 h). Correct placement of the cannulae was assessed post-mortem. Rats were used for tests two weeks after ovariectomy (one week after cannulation). The experiments started at least 5 h into the dark period. […]

[4] = system: female rat sexual receptivity; test: Female rat sexual receptivity test (lordosis quotient); format: in vivo; settings: for lordosis quotient (LQ) vs LQ before administration: Compound (2) 10-100 mg/kg oral in PEG200, 1 h, quinelorane 6.25 μg/kg s.c., 90 min (FIG. 21)
Procedure: as §2
Compound (1) was dissolved in 100% β-cyclodextrin and then diluted with saline to a final solution of 50% 2-hydroxypropyl-β-cyclodextrin. It was administered intraperitoneally (i.p.) at a dose of 10 mg/kg, in a dosing volume of 1 ml/kg. Quinelorane (6.25 μg/kg) was dissolved in water and administered s.c. as positive control. Forty eight hours before testing, ovariectomised female rats (as described above), were primed with 5 μg oestradiol benzoate dissolved in corn oil and injected subcutaneously. […] The females were placed with a series of vigorous male rats and subjected to 10 mounts.
The lordotic response of the animal was recorded and expressed as a percentage of the mounts (i.e. lordosis quotient, LQ), as previously described. Animals showing LQ<20 were considered non-receptive and were included in the study. Each rat was tested prior to administration of the compound and then tested similarly post-injection. The pre-treatment times were 1 h for Compound (1) and vehicle (50% β-cyclodextrin, i.p.) or 90 min for quinelorane.
The above compound was dissolved in PEG200 vehicle and administered orally. Quinelorane dihydrochloride (LY 163,502, 6.25 μg/kg) was dissolved in water and administered subcutaneously (s.c.), as a positive control. Both compounds were administered in a 1 ml/kg volume.
Forty eight hours before tests, the animals were primed with 5 μg oestradiol benzoate (Sigma Chemical. Co. Ltd., UK) dissolved in corn oil and injected subcutaneously. The females were placed with a series of vigorous male rats and subjected to 10 mounts. The lordotic response of the animal was recorded and expressed as a percentage of the mounts (i.e. lordosis quotient, LQ). […] Animals showing higher LQ were not included in the study. […]

T1 sequence (P28336 whole entry): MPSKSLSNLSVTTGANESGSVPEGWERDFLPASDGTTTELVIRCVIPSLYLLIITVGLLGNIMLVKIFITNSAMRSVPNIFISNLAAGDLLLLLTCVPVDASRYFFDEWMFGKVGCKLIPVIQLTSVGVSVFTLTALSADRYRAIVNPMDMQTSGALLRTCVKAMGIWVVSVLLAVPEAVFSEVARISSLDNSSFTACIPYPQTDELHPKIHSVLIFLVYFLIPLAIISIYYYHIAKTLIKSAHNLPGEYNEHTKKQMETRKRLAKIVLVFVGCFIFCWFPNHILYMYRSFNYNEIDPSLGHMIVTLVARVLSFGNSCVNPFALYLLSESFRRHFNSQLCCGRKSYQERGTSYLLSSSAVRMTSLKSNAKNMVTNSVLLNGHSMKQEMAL
T2 sequence (P30550 whole entry): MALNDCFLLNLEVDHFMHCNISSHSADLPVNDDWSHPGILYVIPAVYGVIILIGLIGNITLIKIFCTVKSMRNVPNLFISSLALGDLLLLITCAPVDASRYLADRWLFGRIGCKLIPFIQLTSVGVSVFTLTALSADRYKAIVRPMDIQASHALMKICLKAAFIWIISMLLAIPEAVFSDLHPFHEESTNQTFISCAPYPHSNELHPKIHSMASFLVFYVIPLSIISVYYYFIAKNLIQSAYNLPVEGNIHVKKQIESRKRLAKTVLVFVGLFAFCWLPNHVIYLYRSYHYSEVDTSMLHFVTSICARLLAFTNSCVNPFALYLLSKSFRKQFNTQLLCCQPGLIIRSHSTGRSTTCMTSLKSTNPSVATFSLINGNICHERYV

Row | Compound | pKi [1] | pKi [2] | percentage of time spent investigating the male stimulus ([3]; oral, 30-100 mg/kg in PEG 200, 1 h before test (FIG. 19)) | percentage of time spent investigating the male stimulus ([3]; p.o., 3-30 mg/kg in 0.5% methyl cellulose, 1 h before test (FIG. 20)) | lordosis quotient (LQ) vs LQ before administration [4] | MED for increase of lordosis quotient (LQ) ([4]; single oral administration, 10-100 mg/kg in PEG200, 1 h after administration) | melting point
1 | COc1ccc(C2(CNC(=O)[C@](C)(Cc3c[nH]c4ccccc34)Nc3nc(-c4ccc([N+](=O)[O-])cc4)co3)CCCCC2)nc1 [Example 9, (S)-3-(1H-Indol-3-yl)-N-[1-(5-methoxy-pyridin-2-yl)-cyclohexylmethyl]-2-methyl-2-[4-(4-nitro-phenyl)-oxazol-2-ylamino]-propionamide] | 8.40 | 7.62 | dose-dependently (30-100) increased the percentage of time spent investigating the male stimulus | dose-dependently (3-30 mg/kg) increased the percentage of time spent investigating the male stimulus | dose-dependently (10-100 mg/kg) increased the LQ | 100 mg/kg | 100 to 105 °C
2 | CCCN1CCC[C@@H]2Cc3nc(N)ncc3C[C@H]21 [quinelorane, reference compound] | – | – | – | – | significantly (P<0.01) increased the LQ | – | –
